What all share (assay type): in vivo
The nature of series [1]: Pharmacokinetics of AG10 after oral administration in beagle dogs, Study No. 2. The conditions noted are these: both sexes, dog, plasma, 20 mg/kg; for Cmax / AUC(0-t): 20 mg/kg oral, sex MF; for AUC(0-t): read-out: AUC0-24; for Tmax: read-out: time to maximal concentration (T max). The method, then:
The pharmacokinetics of AG10 were also determined following oral administration in non-naïve male and female beagle dogs (Study No. 2). The study design included three treatment groups (n=2/sex/group). Groups 1 and 2 received 5 mg/kg and 20 mg/kg AG10 in 0.5% methylcellulose (MC) formulations respectively. Group 3 animals received 20 mg/kg AG10 in gelatin capsule form. Blood samples were collected at pre-dose and approximately 2, 4, 6, 8, 12, and 24 hours post-dose. Plasma samples were assayed for AG10 by LC-MS/MS. Plasma exposures (AUC0-24) of AG10 in dogs administered 20 mg/kg AG10 as a suspension in 0.5% methylcellulose were similar to those obtained in Study No. 1 (Table 1). Plasma exposures of AG10 were also similar in dogs which were administered the same dose of AG10 either as a suspension in 0.5% methylcellulose or as a gelatin capsule without any excipients.

Series [2] is described as follows: Pharmacokinetics of AG10 in dogs, oral gavage, Study No. 1. The conditions noted are these: both sexes, dog, plasma. As to the method: Pharmacokinetics of AG10 were determined when administered once daily to dogs via oral gavage at 20, 60, and 200 mg/kg for 3 days (Study No. 1). Each group consisted of two animals/sex/group. Blood samples were collected from each animal on Day 1 at pre-dose, 0.25, 0.5, 1, 2, 4, 8, 12 and 24 hours post-dose, Day 3 at pre-dose, 0.25, 0.5, 1, 2, 4, 8, 12, 24, 48 and 72 hr post-dose. Plasma samples were assayed for AG10 by LC-MS/MS. In general, no sex differences in AG10 mean Cmax and AUC0-24 values were observed; therefore, results for the 20 mg/kg dose group are presented as combined sex values in Table 1 below.

Series [3] in a line: Pharmacokinetics of AG10 tablets and capsule given orally to male beagle dogs, Study No. 3. The conditions noted are these: for Tmax / Cmax / AUC(0-t): male, beagle, dog, plasma, po; for Tmax: dogs, read-out: time to maximal concentration (T max); for Cmax / AUC(0-t): male dogs; for AUC(0-t): read-out: AUC0-24. The method, then:
AG10 was administered orally to 4 male beagle dogs each as a 50 mg tablet, 200 mg tablet, and a 200 mg capsule (No. 3). Blood samples were collected at pre-dose and approximately 0.25, 0.5, 1, 2, 4, 8, 24, 48, 72 and 96 hours post-dose. Plasma samples were assayed for AG10 by LC-MS/MS.

Where [4] appears, read: gelatin capsule without excipients.

The values below come from patent US11260047B2, “Formulations of AG10” (Eidos Therapeutics, Inc., priority 2018, dated 2022).

With `Cc1n[nH]c(C)c1CCCOc1cc(C(=O)O)ccc1F` [AG10, 3-(3-(3,5-dimethyl-1H-pyrazol-4-yl)propoxy)-4-fluorobenzoic acid], the Cmax in series [1] (0.5% MC formulation) was 8100 ng/mL; in series [1] (setting [4]), 10300 ng/mL; in series [2] (0.5% MC formulation, 20 mg/kg oral gavage, sex MF combined), 16100 ng/mL; in series [3] (50 mg, tablet 50 mg oral) it was 4660 ng/mL; in series [3] (200 mg, capsule 200 mg oral), 9330 ng/mL; in series [3] (200 mg, tablet 200 mg oral), 13000 ng/mL. The AUC(0-t) in series [1] (0.5% MC formulation) turned out to be 71200 ng·h/mL; in series [1] (setting [4]), 89300 ng·h/mL; in series [2] (0.5% MC formulation, 20 mg/kg oral gavage, sex MF combined, read-out: AUC0-24), 69100 ng·h/mL; in series [3] (50 mg, tablet 50 mg oral), 41500 ng·h/mL; in series [3] (200 mg, capsule 200 mg oral), 65700 ng·h/mL; in series [3] (200 mg, tablet 200 mg oral) it was 88000 ng·h/mL. Moreover, the Tmax in series [1] (capsule formulated without excipients) came to 2 h; in series [1] (methylcellulose formulation), 2.5 ± 1 h; in series [2] (po, 20 mg/kg, methylcellulose formulation, read-out: time to maximal concentration (T max)) it was 0.44 ± 0.38 h; in series [3] (50 mg, 50 mg tablets), 0.5 h; in series [3] (200 mg, 200 mg capsules with excipient), 1.38 ± 0.75 h; in series [3] (200 mg, 200 mg tablets), 1 h. For the same compound, the “Cmax, 200 mg tablets compared with 200 mg capsules” value in series [3] (unpaired t-test, P value 0.0788) is listed as “not significantly different”. Moreover, the “AUC0-inf, 200 mg tablets compared with 200 mg capsules” value in series [3] (unpaired t-test, P value 0.0995) is “not significantly different”.
